ChEMBL document CHEMBL4041546, “Synthesis and antimicrobial studies of novel derivatives of 4-(4-formyl-3-phenyl-1H-pyrazol-1-yl)benzoic acid as potent anti-Acinetobacter baumannii agents” (Bioorg Med Chem Lett, 2017)
≈ marks a conversion by molar mass, not a printed value. Calls of active or inactive are those of the source. The calls are words filed in the database; no cut-off is given here.

Assays:
Acinetobacter baumannii [1] = assay: Antibacterial activity against Acinetobacter baumannii ATCC 19606 by disk diffusion assay; type: functional, ATCC 19606 = CIP 70.34 = JCM 6841
Staphylococcus aureus [2] = assay: Antibacterial activity against methicillin-resistant Staphylococcus aureus ATCC 43300 by disk diffusion assay; type: functional
Bacillus subtilis = assay: Antibacterial activity against Bacillus subtilis by disk diffusion assay; type: functional
Acinetobacter baumannii [3] = assay: Antibacterial activity against Acinetobacter baumannii ATCC 19606; type: functional; settings: ATCC 19606 = CIP 70.34 = JCM 6841
Escherichia coli = assay: Antibacterial activity against Escherichia coli by disk diffusion assay; type: functional
[4] = Cytotoxicity against HEK293 cells; type: cell-based; settings: human
Staphylococcus aureus [5] = assay: Antibacterial activity against methicillin-resistant Staphylococcus aureus ATCC 43300; type: functional
Acinetobacter baumannii [6] = assay: Potency index, ratio of chloramphenicol MIC to compound MIC for Acinetobacter baumannii ATCC 19606; type: functional, ATCC 19606 = CIP 70.34 = JCM 6841
Acinetobacter baumannii [7] = assay: Antibacterial activity against Acinetobacter baumannii ATCC 19606 at 0.1 M by disk diffusion assay; type: functional, ATCC 19606 = CIP 70.34 = JCM 6841
Acinetobacter baumannii [8] = assay: Antibacterial activity against Acinetobacter baumannii ATCC 19606 at 0.01 M by disk diffusion assay; type: functional, ATCC 19606 = CIP 70.34 = JCM 6841
[9] = ATCC 19606 = CIP 70.34 = JCM 6841

Row | Structure (SMILES) | inhibition zone (IZ) (Staphylococcus aureus [2]) | inhibition zone (IZ) (Bacillus subtilis) | further results
1 | O=C(O)c1ccc(-n2cc(/C=N/Nc3ccc(Br)cc3)c(-c3ccccc3)n2)cc1 | 10 mm | 10 mm | inhibition zone (IZ) (Acinetobacter baumannii [1]): 42 mm; MIC (Acinetobacter baumannii [3]): 8 µg/mL (≈ 17.3 µM); inhibition zone (IZ) (Escherichia coli): inactive; CC50 [4]: > 32 µg/mL
2 | O=C(O)c1ccc(-n2cc(/C=N/NC(=O)c3ccncc3)c(-c3ccccc3)n2)cc1 | inactive | inactive | –
3 | O=C(O)c1ccc(-n2cc(/C=N/NC(=O)c3ccc(F)cc3)c(-c3ccccc3)n2)cc1 | inactive | inactive | –
4 | Cc1ccc(S(=O)(=O)N/N=C/c2cn(-c3ccc(C(=O)O)cc3)nc2-c2ccccc2)cc1 | 12 mm | 11 mm | –
5 | O=C(O)c1ccc(-n2cc(CNc3ccc(Br)c(C(F)(F)F)c3)c(-c3ccccc3)n2)cc1 | 15 mm | 12 mm | MIC (Staphylococcus aureus [5]): 32 µg/mL (≈ 62 µM); CC50 [4]: > 32 µg/mL
6 | O=C(O)c1ccc(-n2cc(CNc3ccc(Cl)c(Cl)c3)c(-c3ccccc3)n2)cc1 | 11 mm | 11 mm | MIC (Staphylococcus aureus [5]): 16 µg/mL (≈ 36.5 µM); CC50 [4]: 18 µg/mL (≈ 41.1 µM)
7 | O=C(O)c1ccc(-n2cc(/C=N/Nc3ccc(Cl)cc3)c(-c3ccccc3)n2)cc1 | 16 mm | 13 mm | inhibition zone (IZ) (Acinetobacter baumannii [1]): 54 mm; MIC (Acinetobacter baumannii [3]): 4 µg/mL (≈ 9.6 µM); inhibition zone (IZ) (Escherichia coli): 8 mm; Ratio (Acinetobacter baumannii [6]): 4; CC50 [4]: > 32 µg/mL
8 | O=C(O)c1cn(C2CC2)c2cc(N3CCNCC3)c(F)cc2c1=O [CIPROFLOXACIN] | 36 mm | 44 mm | inhibition zone (IZ) (Acinetobacter baumannii [1]): 32 - 37 mm; MIC (Acinetobacter baumannii [3]): 1.56 µg/mL (≈ 4.71 µM); inhibition zone (IZ) (Escherichia coli): 39 mm
9 | O=C(O)c1ccc(-n2cc(/C=N/Nc3ccc(F)cc3)c(-c3ccccc3)n2)cc1 | 16 mm | 18 mm | inhibition zone (IZ) (Acinetobacter baumannii [7]): >85 mm; inhibition zone (IZ) (Acinetobacter baumannii [8]): 32 mm; MIC (Acinetobacter baumannii [3]): 8 µg/mL (≈ 20 µM); inhibition zone (IZ) (Escherichia coli): 8 mm; CC50 [4]: > 32 µg/mL
10 | O=C(O)c1ccc(-n2cc(/C=N/Nc3ccccc3)c(-c3ccccc3)n2)cc1 | 10 mm | 11 mm | inhibition zone (IZ) (Acinetobacter baumannii [1]): 28 mm; inhibition zone (IZ) (Escherichia coli): inactive
11 | O=C(O)c1ccc(-n2cc(/C=N/NC(=O)c3ccccc3)c(-c3ccccc3)n2)cc1 | 8 mm | 8 mm | –
12 | COC(=O)N/N=C/c1cn(-c2ccc(C(=O)O)cc2)nc1-c1ccccc1 | inactive | inactive | –
13 | O=C(O)c1ccc(-n2cc(CNc3cc(C(=O)O)cc(C(=O)O)c3)c(-c3ccccc3)n2)cc1 | 10 mm | 9 mm | –
14 | O=C(O)c1ccc(-n2cc(CNc3ccc(Cl)c(C(F)(F)F)c3)c(-c3ccccc3)n2)cc1 | 17 mm | 17 mm | MIC (Staphylococcus aureus [5]): 32 µg/mL (≈ 67.8 µM); CC50 [4]: > 32 µg/mL
15 | O=C(O)c1ccc(N/N=C/c2cn(-c3ccc(C(=O)O)cc3)nc2-c2ccccc2)cc1 | inactive | inactive | inhibition zone (IZ) (Acinetobacter baumannii [1]; [9]): inactive; inhibition zone (IZ) (Escherichia coli): inactive
16 | O=C(N[C@H](CO)[C@H](O)c1ccc([N+](=O)[O-])cc1)C(Cl)Cl [CHLORAMPHENICOL] | 25 - 36 mm | 36 mm | inhibition zone (IZ) (Acinetobacter baumannii [1]): 18 - 22 mm; MIC (Acinetobacter baumannii [3]): 16 µg/mL (≈ 49.5 µM); inhibition zone (IZ) (Escherichia coli): 39 mm
17 | O=C(O)c1ccc(-n2cc(/C=N/Nc3ccc([N+](=O)[O-])cc3)c(-c3ccccc3)n2)cc1 | inactive | inactive | inhibition zone (IZ) (Acinetobacter baumannii [1]): 22 mm; inhibition zone (IZ) (Escherichia coli): inactive
18 | O=C(O)c1ccc(-n2cc(CNc3ccc(CCO)cc3)c(-c3ccccc3)n2)cc1 | 9 mm | 10 mm | –
19 | NC(=S)N/N=C/c1cn(-c2ccc(C(=O)O)cc2)nc1-c1ccccc1 | inactive | inactive | –
20 | CN1CCN(/N=C/c2cn(-c3ccc(C(=O)O)cc3)nc2-c2ccccc2)CC1 | inactive | inactive | inhibition zone (IZ) (Acinetobacter baumannii [1]; [9]): inactive; inhibition zone (IZ) (Escherichia coli): inactive
21 | Cc1cc(NCc2cn(-c3ccc(C(=O)O)cc3)nc2-c2ccccc2)ccc1Br | 15 mm | 17 mm | MIC (Staphylococcus aureus [5]): 16 µg/mL (≈ 34.6 µM); CC50 [4]: 17.9 µg/mL (≈ 38.7 µM)

Row | Structure (SMILES) | inhibition zone (IZ) (Staphylococcus aureus [2]) | inhibition zone (IZ) (Bacillus subtilis) | further results
22 | Cc1ccc(NCc2cn(-c3ccc(C(=O)O)cc3)nc2-c2ccccc2)cc1Cl | 13 mm | 16 mm | MIC (Staphylococcus aureus [5]): 16 µg/mL (≈ 38.3 µM); CC50 [4]: 20 µg/mL (≈ 47.9 µM)
23 | CC(=O)N/N=C/c1cn(-c2ccc(C(=O)O)cc2)nc1-c1ccccc1 | inactive | inactive | –
24 | O=C(O)c1ccc(-n2cc(/C=N/NC(=O)c3ccc(O)cc3)c(-c3ccccc3)n2)cc1 | inactive | inactive | –
25 | NC(=O)N/N=C/c1cn(-c2ccc(C(=O)O)cc2)nc1-c1ccccc1 | inactive | inactive | –
26 | O=C(O)c1ccc(-n2cc(CNc3ccc(F)c([N+](=O)[O-])c3)c(-c3ccccc3)n2)cc1 | 14 mm | 12 mm | –
27 | Cc1ccccc1NCc1cn(-c2ccc(C(=O)O)cc2)nc1-c1ccccc1 | 14 mm | 16 mm | –
28 | COc1ccc(C(=O)N/N=C/c2cn(-c3ccc(C(=O)O)cc3)nc2-c2ccccc2)cc1 | 8 mm | 11 mm | –
29 | O=C(O)c1ccc(-n2cc(/C=N/NC(=O)c3ccccc3O)c(-c3ccccc3)n2)cc1 | inactive | inactive | –
30 | O=C(O)c1ccc(-n2cc(/C=N/NC(=O)c3cccnc3)c(-c3ccccc3)n2)cc1 | inactive | inactive | –
31 | O=C(O)c1ccc(-n2cc(/C=N/NC(=O)c3ccccc3F)c(-c3ccccc3)n2)cc1 | 10 mm | 11 mm | –
32 | O=C(O)c1ccc(-n2cc(/C=N/NC(=O)c3ccc4ccccc4c3O)c(-c3ccccc3)n2)cc1 | inactive | inactive | –
33 | O=C(O)c1ccc(-n2cc(/C=N/Nc3ccc(Cl)cc3Cl)c(-c3ccccc3)n2)cc1 | 10 mm | 11 mm | inhibition zone (IZ) (Acinetobacter baumannii [1]; [9]): inactive; inhibition zone (IZ) (Escherichia coli): inactive
34 | O=C(O)c1ccc(-n2cc(CNc3ccc(F)c(C(F)(F)F)c3)c(-c3ccccc3)n2)cc1 | 21 mm | 22 mm | MIC (Staphylococcus aureus [5]): 32 µg/mL (≈ 70.3 µM); CC50 [4]: > 32 µg/mL
35 | O=C(O)c1ccc(-n2cc(/C=N/Nc3ccccc3F)c(-c3ccccc3)n2)cc1 | 13 mm | 17 mm | inhibition zone (IZ) (Acinetobacter baumannii [1]): 34 mm; inhibition zone (IZ) (Escherichia coli): inactive
36 | Cc1cc(NCc2cn(-c3ccc(C(=O)O)cc3)nc2-c2ccccc2)ccc1F | 15 mm | 16 mm | –
37 | O=C(O)c1ccc(-n2cc(/C=N/NS(=O)(=O)c3ccccc3)c(-c3ccccc3)n2)cc1 | 9 mm | 10 mm | –
38 | N/N=C/c1cn(-c2ccc(C(=O)O)cc2)nc1-c1ccccc1 | 7 mm | 7 mm | inhibition zone (IZ) (Acinetobacter baumannii [1]; [9]): inactive; inhibition zone (IZ) (Escherichia coli): inactive
39 | O=C(O)c1ccc(-n2cc(CNc3ccc(F)c(Cl)c3)c(-c3ccccc3)n2)cc1 | 11 mm | 11 mm | –
40 | O=C(O)c1ccc(-n2cc(CNc3cc(C(F)(F)F)cc(C(F)(F)F)c3)c(-c3ccccc3)n2)cc1 | 22 mm | 25 mm | MIC (Staphylococcus aureus [5]): 32 µg/mL (≈ 63.3 µM); CC50 [4]: > 32 µg/mL
41 | O=C(O)c1ccc(-n2cc(CNc3cccc(C(=O)O)c3)c(-c3ccccc3)n2)cc1 | inactive | inactive | –
